Data taken from ChEMBL document CHEMBL5390241, “Natural Enfumafungin Analogues from Hormonema carpetanum and Their Antifungal Activities” (2023).
Values after ≈ are worked out from the molar mass of the structure shown.

How the values were obtained:
Type in all cases: functional
Cryptococcus neoformans [1] = assay: Antifungal activity against Cryptococcus neoformans 32609 assessed as inhibition in growth incubated for 48 hrs by broth microdilution method
Candida parapsilosis = assay: Antifungal activity against Candida parapsilosis 22019 assessed as inhibition in growth incubated for 48 hrs by broth microdilution method; details: Lodderomyces parapsilosis
Nakaseomyces glabratus = assay: Antifungal activity against Candida glabrata 537 assessed as inhibition in growth incubated for 48 hrs by broth microdilution method
[Candida] auris [2] = Antifungal activity against Candida auris 918 assessed as inhibition in growth incubated for 48 hrs by broth microdilution method; details: Candidozyma auris
Candida albicans [3] = assay: Antifungal activity against Candida albicans 10231 assessed as inhibition in growth incubated for 48 hrs by broth microdilution method
Pichia kudriavzevii = assay: Antifungal activity against candida krusei 4996 assessed as inhibition in growth incubated for 48 hrs by broth microdilution method
Candida tropicalis = assay: Antifungal activity against Candida tropicalis 8915 assessed as inhibition in growth incubated for 48 hrs by broth microdilution method
Candida albicans [4] = assay: Antifungal activity against Candida albicans SC5314 assessed as inhibition in growth incubated for 48 hrs by broth microdilution method
[Candida] auris [5] = Antifungal activity against Candida auris 919 assessed as inhibition in growth incubated for 48 hrs by broth microdilution method; details: Candidozyma auris
Cryptococcus neoformans [6] = assay: Antifungal activity against Cryptococcus neoformans H99 assessed as inhibition in growth incubated for 48 hrs by broth microdilution method

Compound	MIC80 (Cryptococcus neoformans [1])	MIC80 (Candida parapsilosis)	MIC80 (Nakaseomyces glabratus)	MIC80 ([Candida] auris [2])	MIC80 (Candida albicans [3])	MIC80 (Pichia kudriavzevii)	MIC80 (Candida tropicalis)	MIC80 (Candida albicans [4])	MIC80 ([Candida] auris [5])	MIC80 (Cryptococcus neoformans [6])
OC(Cn1cncn1)(Cn1cncn1)c1ccc(F)cc1F [FLUCONAZOLE]	1 µg/mL (≈ 3.27 µM)	4 µg/mL (≈ 13.1 µM)	1 µg/mL (≈ 3.27 µM)	> 64 µg/mL	> 64 µg/mL	> 64 µg/mL	> 64 µg/mL	1 µg/mL (≈ 3.27 µM)	> 64 µg/mL	> 64 µg/mL
CC(=O)O[C@@H]1C[C@]23C4=CC[C@@]5(C)[C@H](C(=O)O)[C@@](C)([C@H](C)C(C)C)CC[C@]5(C)[C@H]4CC[C@H]2[C@@](C)(COC3O)[C@H]1O[C@@H]1O[C@H](CO)[C@@H](O)[C@H](O)[C@H]1O (stereo not given in full) [ENFUMAFUNGIN]	8 µg/mL (≈ 11.3 µM)	8 µg/mL (≈ 11.3 µM)	8 µg/mL (≈ 11.3 µM)	64 µg/mL (≈ 90.3 µM)	4 µg/mL (≈ 5.64 µM)	8 µg/mL (≈ 11.3 µM)	4 µg/mL (≈ 5.64 µM)	4 µg/mL (≈ 5.64 µM)	64 µg/mL (≈ 90.3 µM)	4 µg/mL (≈ 5.64 µM)
CC(=O)O[C@@H]1C[C@]23C4=CC[C@@]5(C)[C@@H]6C(=O)C[C@H](C(C)C)[C@@]6(C)CC[C@]5(C)[C@H]4CC[C@H]2[C@@](C)(COC3O)[C@H]1O[C@@H]1O[C@H](CO)[C@@H](O)[C@H](O)[C@H]1O (stereo not given in full)	64 µg/mL (≈ 92.6 µM)	> 64 µg/mL	16 µg/mL (≈ 23.2 µM)	> 64 µg/mL	32 µg/mL (≈ 46.3 µM)	64 µg/mL (≈ 92.6 µM)	64 µg/mL (≈ 92.6 µM)	64 µg/mL (≈ 92.6 µM)	> 64 µg/mL	32 µg/mL (≈ 46.3 µM)
CC(C)[C@@H](C)[C@@]1(C)CC[C@]2(C)[C@H]3CC[C@H]4[C@@]5(C)COC(O)[C@@]4(C[C@@H](O)[C@@H]5O[C@@H]4O[C@H](CO)[C@@H](O)[C@H](O)[C@H]4O)C3=CC[C@@]2(C)[C@@H]1C(=O)O (stereo not given in full)	> 64 µg/mL	> 64 µg/mL	32 µg/mL (≈ 48 µM)	> 64 µg/mL	> 64 µg/mL	64 µg/mL (≈ 96 µM)	> 64 µg/mL	> 64 µg/mL	> 64 µg/mL	> 64 µg/mL
